The target of the assay is Scavenger receptor class B member 1 (Mus musculus) (UniProt Q61009). In words: activators of SR-BI-mediated HDL uptake, dose response, cell-based, ldlA[mSR-BI] CHO, DiI fluorescence, cherry-pick (AID 602191).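 On AC40: potency of activators raising HDL uptake.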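 On activation (HDL uptake increase): 0% = median of DMSO wells and 100% = twice the DMSO signal.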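 On all read-outs here: cell fluorescence from internalized DiI-labeled HDL after washing.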 The note with it: ldlA[mSR-BI] CHO cells, 3 h; for activation (HDL uptake increase): at 35 µM (top of the series).
Chain of Scavenger receptor class B member 1 (Mus musculus) (Q61009 whole entry, looked up): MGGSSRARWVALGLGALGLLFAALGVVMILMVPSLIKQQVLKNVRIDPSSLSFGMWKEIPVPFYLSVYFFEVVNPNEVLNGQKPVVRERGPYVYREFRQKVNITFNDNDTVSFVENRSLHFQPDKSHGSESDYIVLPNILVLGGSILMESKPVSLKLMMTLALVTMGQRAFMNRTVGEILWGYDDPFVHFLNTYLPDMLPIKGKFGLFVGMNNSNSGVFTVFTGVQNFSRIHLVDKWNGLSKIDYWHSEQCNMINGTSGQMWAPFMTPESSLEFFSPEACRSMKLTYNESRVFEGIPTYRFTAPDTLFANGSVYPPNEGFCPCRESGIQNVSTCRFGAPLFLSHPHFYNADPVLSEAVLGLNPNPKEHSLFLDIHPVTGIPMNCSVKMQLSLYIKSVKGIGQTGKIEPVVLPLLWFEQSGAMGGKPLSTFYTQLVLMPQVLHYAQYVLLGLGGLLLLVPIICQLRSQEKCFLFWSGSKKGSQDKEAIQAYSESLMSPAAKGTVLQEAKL

Among the data in PubChem BioAssay AID602191 (Broad Institute, 2012) are activation (HDL uptake increase) and AC40 values, retold here.

The structures appear in SMILES notation. Activity calls are given as the source filed them.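 How the source made its calls: active means fitted curve reaches 40% activation at a concentration no higher than the top valid tested dose; inconclusive means flat fit between 30% and 70% activation, or poor fit; inactive means uptake decrease, flat fit within 30% of zero, the rest.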

In the case of `CCN1CCN(c2ccc(S(=O)(=O)N3CCCCC3)cc2NC(=O)c2cccc(C(F)(F)F)c2)CC1`, the activation (HDL uptake increase) is 7.47% (inactive).

As for `COc1ccc(N2C(=O)CCC(C(=O)N3CCOCC3)C2c2ccc(F)cc2)cc1` (stereo not given), the activation (HDL uptake increase) was 5.04% (inactive).

Regarding `CCc1cc(C(=O)Nc2cc(S(=O)(=O)N3CCOCC3)ccc2N2CCN(CC)CC2)sc1C`, the activation (HDL uptake increase) is -0.114% (inactive).

For the compound `O=C(CNC(=O)c1ccc(Cl)cc1Cl)OCC(=O)N1CCCC1`, the activation (HDL uptake increase) was -11.8% (inactive).

For `C[C@H](NC(=O)c1nc[nH]c1C(=O)NCc1ccccc1)c1ccccc1`, the activation (HDL uptake increase) was -1.54% (inactive).

With `COc1ccc(N2CC(NC(=O)N3CCN(C(=O)c4ccco4)CC3)CC2=O)cc1OC` (stereo not given), the activation (HDL uptake increase) is 11% (inactive).

In the case of `Nc1nnc(SCC(=O)NN2C(=O)NC3(CCCCC3)C2=O)s1`, the activation (HDL uptake increase) was -7.59% (inactive).

For `Cc1ccc(S(=O)(=O)Nc2ccc3c(c2)C(=O)N([C@H](C)CO)C[C@H](C)[C@@H](CN(C)Cc2ccc(-c4ccccc4)cc2)O3)cc1`, the AC40 is 35 µM.

As to `CCOC(=O)C1CCN(S(=O)(=O)c2cc(C(=O)N3CCCCC3)ccc2OC)CC1`, the activation (HDL uptake increase) is -3.08% (inactive).

As to `CCc1nn(CC(=O)N2CCN(CC)CC2)c(=O)c2cccn12`, the activation (HDL uptake increase) is -9.62% (inactive).

In the case of `Cc1ccc(-c2csc(=Nc3cccnc3)n2CCCN2CCCC2=O)cc1C`, the activation (HDL uptake increase) is -13.4% (inactive).

In the case of `COc1ccccc1N1C(=O)CCC1(C#N)c1ccc(Br)cc1` (stereo not given), the activation (HDL uptake increase) was 9.71% (inactive).

As to `C/C=C(\C)C(=O)OC1CC(C)(C)C[C@H]2C3=CC[C@@H]4[C@@]5(C)CCC(O[C@@H]6O[C@@H](C(=O)O)[C@@H](O)C(O[C@@H]7OC[C@H](O)[C@@H](O)[C@@H]7O[C@@H]7OC(CO)C(O)[C@@H](O)[C@@H]7O)C6O[C@@H]6OC(CO)C(O)C(O)C6O)[C@@](C)(CO)[C@@H]5CC[C@]4(C)[C@]3(C)CC(O)[C@@]12CO` (stereo not given in full), the activation (HDL uptake increase) was -2.08% (inactive).

`Cc1ccc(N2C(=O)C3C(C(=O)c4ccccc4)=NN(c4ccccc4)C3C2=O)cc1` (stereo not given): the activation (HDL uptake increase) is 0.966% (inactive).

Turning to `CSCCC(NC(=O)c1ccco1)C(=O)NC1CCC(C)CC1` (stereo not given), the activation (HDL uptake increase) was -3.23% (inactive).

Consider `C=CC[C@@H](CC(=O)N[C@@H](CO)Cc1ccccc1)C(=O)N[C@H](COC(=O)[C@@H](CC=C)CC(=O)OC(C)(C)C)Cc1c[nH]c2ccccc12`, for which the activation (HDL uptake increase) was 65.3% (inactive).

In the case of `CC(=O)NC1(C2CCCCC2=O)CCCCC1` (stereo not given), the activation (HDL uptake increase) is -3.84% (inactive).

As to `CCN(CC)C(=O)c1ncn(Cc2ccccc2)c1C(=O)N(CC)CC`, the activation (HDL uptake increase) is -3.26% (inactive).

Consider `CC[C@]12c3[nH]c4cc(-c5ccco5)ccc4c3CCN1C(=O)[C@@H](CC(=O)NC(C)(C)C)C[C@@H]2C(=O)N1CCN(C(=O)c2ccco2)CC1`, for which the activation (HDL uptake increase) is -20.6% (inactive).

For `O=C(NCc1ccccc1)C1=C[C@H](c2coc3ccccc3c2=O)C[C@H](OCc2ccc(CO)cc2)O1`, the activation (HDL uptake increase) was -1.3% (inactive).

Consider `O=C(C[C@H]1C[C@H](C(=O)N2CCCCC2)[C@@]2(CCc3ccccc3)c3[nH]c4ccc(Cl)cc4c3CCN2C1=O)NCCc1ccccn1`, for which the AC40 is > 35 µM (inactive).

With `CC(C)(C)NC(=O)C[C@H]1C[C@H](C(=O)N2CCOCC2)[C@@]2(CCC3CCCC3)c3[nH]c4cc(-c5ccco5)ccc4c3CCN2C1=O`, the activation (HDL uptake increase) is -1.73% (inactive).

For the compound `C[C@H](CO)N1C[C@H](C)[C@@H](CN(C)S(=O)(=O)c2ccccc2)Oc2ccc(NC(=O)Nc3ccc(C(F)(F)F)cc3)cc2C1=O`, the AC40 is 34.6 µM.

In the case of `Cc1c(C(=O)N2CCC(C(N)=O)CC2)sc(N)c1C#N`, the activation (HDL uptake increase) is -8.06% (inactive).

`O=C(CCC(=O)N1CCOc2ccc(Cl)cc21)NCCCN1CCN(Cc2ccccc2)CC1`: the activation (HDL uptake increase) was 4.6% (inactive).

As for `COCCNC(=O)c1cnn2c1NC(c1ccco1)CC2C(F)(F)F` (stereo not given), the activation (HDL uptake increase) was -4% (inactive).

On to `CCOC(=O)c1c(NC(=O)C2COc3ccccc3O2)sc2c1CC(C)(C)NC2(C)C` (stereo not given), for which the activation (HDL uptake increase) is -5.51% (inactive).

Turning to `O=c1c(C=NCCN2CCNCC2)c(O)n(C2CCCCC2)c(=O)n1C1CCCCC1`, the AC40 is > 35 µM (inactive).

As for `Cc1ccc(N(CC(=O)N2CC(=O)Nc3ccccc32)S(=O)(=O)c2ccc3c(c2)OCCO3)cc1`, the activation (HDL uptake increase) was -11.9% (inactive).

Consider `CCCC(=O)OCC(=O)Nc1ccc(OC(F)F)cc1`, for which the activation (HDL uptake increase) was 1.74% (inactive).

Take `COc1ccc(N(CC(=O)NCc2ccccc2)S(=O)(=O)c2c(C)nn(C)c2C)cc1`: the activation (HDL uptake increase) is -6.65% (inactive).

Regarding `CC(=O)Nc1ccc(SCC(=O)NC(=O)c2ccc(S(=O)(=O)N(C)C)cc2)cc1`, the activation (HDL uptake increase) was -3.69% (inactive).

With `Cc1ccccc1-c1nnc(SCC(=O)Nc2c(C)n(C)n(-c3ccccc3)c2=O)o1`, the activation (HDL uptake increase) is -18.8% (inactive).

As for `CN(C)CCCNC(=O)/C=C/c1ccc2c(c1)OCO2`, the activation (HDL uptake increase) is -4.26% (inactive).

In the case of `O=C(COc1ccc(C(=O)c2ccccc2)cc1)NC1CCCCC1`, the activation (HDL uptake increase) is -7.46% (inactive).

Turning to `CC1CCCC(C)N1C(=O)COC(=O)CN1C(=O)c2ccccc2C1=O` (stereo not given), the activation (HDL uptake increase) was -4.2% (inactive).

Regarding `C[C@@H](C(=O)OCC(=O)c1ccccc1)N1C(=O)C2CCCCC2C1=O` (stereo not given in full), the activation (HDL uptake increase) is -7.88% (inactive).

Take `CC(C)C[C@@H](CN1CCCC1CN1C(=S)NC[C@@H]1Cc1ccc(O)cc1)N1C[C@H](Cc2ccc(O)cc2)N(CC2CCCCCC2)C1=S` (stereo not given in full): the activation (HDL uptake increase) is 1.49% (inactive).

With `CC(CN(C)Cc1ccccc1)OC(=O)c1cccc(F)c1` (stereo not given), the activation (HDL uptake increase) was -8.97% (inactive).

For `CCOC(=O)[C@H]1[C@H]2COc3ccccc3[C@@H]2N2C(=O)CN(Cc3ccccc3)C(=O)[C@@]12C`, the activation (HDL uptake increase) is -9.27% (inactive).

Take `O=C(COc1ccccc1Cc1ccccc1)Nc1cccnc1`: the activation (HDL uptake increase) was -14.9% (inactive).

In the case of `Cc1ccc(S(=O)(=O)NC(=O)Nc2nnc(C3CC3)s2)cc1`, the activation (HDL uptake increase) was 9.12% (inactive).

For the compound `COC(=O)CNC(=O)C12CC3CC(C1)CC(c1ccc(C)cc1)(C3)C2`, the activation (HDL uptake increase) is -4.62% (inactive).

For the compound `Cc1ccc(CN2CCNC(=O)C2CC(=O)N2CCN(c3ncccn3)CC2)o1` (stereo not given), the activation (HDL uptake increase) is -8.96% (inactive).

Take `O=S1(=O)CCO[C@H]2Cc3ccccc3[C@H]2N1Cc1ccccc1`: the activation (HDL uptake increase) was -12.6% (inactive).

On to `NNC(=O)Cn1nc(Cc2ccccc2)n(N)c1=O`, for which the activation (HDL uptake increase) is -4.95% (inactive).

With `O=C(Cc1ccc(NC(=O)C2CCN(C(=O)C3CC3)CC2)cc1)Nc1ccc(C(=O)N2CCOCC2)cc1`, the AC40 was > 35 µM (inactive).

For `O=C(CCN1C(=O)c2ccccc2C1=O)C1=NN[C@@H]2C(=O)N(c3cccc(F)c3)C(=O)[C@H]12`, the activation (HDL uptake increase) was -9.51% (inactive).

Take `Cc1c(/C(O)=C2/C(=O)C(=O)N(CCN3CCOCC3)C2c2cccnc2)cnn1-c1ccccc1` (stereo not given): the activation (HDL uptake increase) was -0.755% (inactive).

As to `CCc1ccc2[nH]c(=O)c(CN(CCN(C)C)C(=O)Nc3ccccc3OC)cc2c1`, the activation (HDL uptake increase) is -2.31% (inactive).

For the compound `CN(c1cccc(NC(=O)CN(c2ccc(C34CC5CC(CC(C5)C3)C4)cc2)S(C)(=O)=O)c1)S(C)(=O)=O`, the activation (HDL uptake increase) is 17.6% (inactive).

In the case of `O=c1[nH]c(C2CCN(S(=O)(=O)c3ccc4c(c3)OCCO4)CC2)nc2c1nnn2Cc1ccc(F)cc1`, the activation (HDL uptake increase) is -4.95% (inactive).

`COc1ccc(N2CC(NS(=O)(=O)c3cccnc3)CC2=O)cc1` (stereo not given): the activation (HDL uptake increase) was -6.57% (inactive).

With `COc1ccc2oc(C(=O)OCC(=O)Nc3ccc(C(=O)N(C)C)cc3)c(C)c2c1`, the activation (HDL uptake increase) is -13.1% (inactive).

As for `CN(c1ccc(OCC(=O)OCC(=O)Nc2ccc([N+](=O)[O-])cc2)cc1)S(=O)(=O)c1cccs1`, the activation (HDL uptake increase) was -13.3% (inactive).

Consider `O=C(c1ccco1)N1CCN(C(=S)Nc2ccc(F)c(Cl)c2)CC1`, for which the activation (HDL uptake increase) is -12.3% (inactive).

Take `Cc1nn(-c2ccccc2)nc1CNC(=O)C(C)Cc1ccccc1` (stereo not given): the activation (HDL uptake increase) is -12.5% (inactive).

Consider `CCn1c(C(=O)O)c(CC(=O)NC2CCCCCC2)c2ccccc21`, for which the AC40 is > 35 µM (inactive).

`Cc1cc(OCC(=O)OCC(=O)NC2CCCCC2C)ccc1Cl` (stereo not given): the activation (HDL uptake increase) is -2.13% (inactive).

`O=C(OCCc1cc2ccccc2c(=O)o1)c1ccc(F)cc1`: the activation (HDL uptake increase) is -13.6% (inactive).

On to `COc1cccc(C(=O)COC(=O)CCC(=O)c2ccccc2)c1`, for which the activation (HDL uptake increase) is -0.792% (inactive).

Regarding `COc1cccc(N2CCN(c3ccc4nnc(CCC(=O)Nc5cc(C)ccn5)n4n3)CC2)c1`, the activation (HDL uptake increase) is -11.4% (inactive).

Take `CC(=O)c1cccc(S(=O)(=O)NCCCN2CCOCC2)c1`: the activation (HDL uptake increase) is -4.98% (inactive).

Regarding `O=C1C2C(c3ccccc3)CC=CC2[C@H](c2ccc(C(F)(F)F)cc2)N1Cc1ccccc1` (stereo not given in full), the activation (HDL uptake increase) is -16.7% (inactive).

Regarding `COc1ccc(S(=O)(=O)N(C)C[C@H]2Oc3c(NC(=O)Nc4ccc(C(F)(F)F)cc4)cccc3C(=O)N([C@H](C)CO)C[C@@H]2C)cc1`, the AC40 is 33.2 µM.

For the compound `O=C1C2C3C=CC(C4CC34)C2C(=O)N1c1nccs1` (stereo not given), the activation (HDL uptake increase) was -0.437% (inactive).

For the compound `O=C(CSc1nnc(CCCOc2ccc(Cl)cc2Cl)o1)Nc1ccc(C(=O)O)cc1`, the activation (HDL uptake increase) was -4.13% (inactive).

Consider `COCCNC(=O)c1onc(CSc2cccc(C)c2)c1C(=O)O`, for which the AC40 is > 35 µM (inactive).

Turning to `CCCC(=O)Nc1cc(C(=O)O)ccc1S(=O)(=O)c1ccc(C)cc1`, the activation (HDL uptake increase) was 1.17% (inactive).

Regarding `COC(=O)CNC(=O)COC(=O)c1cc(Cl)cc(Cl)c1N`, the activation (HDL uptake increase) was -8.63% (inactive).
